≈ marks a conversion by molar mass, not a printed value.
What was measured:
physchem [1] = assay: physchem
physchem [2] = conditions: octanol/water, pH 2
physchem [3] = conditions: octanol/water, pH 7.4
physchem [4] = assay: physchem; remark: listed apart in the source
Mus musculus [5] = assay: Protection of mice infected with MRSA-32 cell suspension after oral administration of compound; format: functional
Staphylococcus aureus [6] = assay: Minimum inhibitory concentration against methicillin susceptible Staphylococcus aureus after esterase action in rat serum; format: functional
Staphylococcus aureus [7] = assay: Minimum inhibitory concentration against methicillin susceptible Staphylococcus aureus before esterase action in rat serum; format: functional
Staphylococcus aureus [8] = assay: Minimum inhibitory concentration against methicillin susceptible Staphylococcus aureus; format: functional
Mus musculus [9] = assay: Efficacy against mice infected with Staphylococcus aureus ATCC 25923 upon s.c. administration; format: functional; conditions: sc
Mus musculus [10] = assay: Efficacy against mice infected with MRSA-33 upon s.c. administration; format: functional; conditions: sc
Mus musculus [11] = assay: Efficacy against mice infected with MRSA-32 upon s.c. administration; format: functional; conditions: MRSA-32, sc
[12] = Mus musculus, MRSA-32, po, read-out: ED50
[13] = Staphylococcus aureus, read-out: MIC

Structure (SMILES)	ED50 (Mus musculus [5]; [12]) [mg/kg]	MIC (Staphylococcus aureus [6]) [µg/mL]	MIC (Staphylococcus aureus [7]) [µg/mL]	also measured
C[C@@H]1CN(c2c(F)c(N)c3c(=O)c(C(=O)O)cn(C4CC4)c3c2F)C[C@H](C)N1 [SPARFLOXACIN]				pKa (physchem [1]): 9.38; logD (physchem [2]): -0.86; logD (physchem [3]): -0.02; pKa (physchem [4]): 6.43
C[C@H]1CCc2c(N3CCC(O)CC3)c(F)cc3c(=O)c(C(=O)OCCN4CCNCC4)cn1c23	> 100	0.12 (≈ 0.254 µM)	0.5 (≈ 1.06 µM)	
C[C@H]1CCc2c(N3CCC(O)CC3)c(F)cc3c(=O)c(C(=O)OC4CCN(C)CC4)cn1c23	> 100	1 (≈ 2.19 µM)	2 (≈ 4.37 µM)	
C[C@H]1CCc2c(N3CCC(O)CC3)c(F)cc3c(=O)c(C(=O)O)cn1c23.NCCCC[C@H](N)C(=O)O	> 100			MIC (Staphylococcus aureus [8]; [13]): 0.03 µg/mL
C[C@H]1CCc2c(N3CCC(O)CC3)c(F)cc3c(=O)c(C(=O)O)cn1c23.N=C(N)NCCC[C@H](N)C(=O)O (stereo in doubt; 19)	90.3			MIC (Staphylococcus aureus [8]; [13]): 0.03 µg/mL
C[C@H]1CCc2c(N3CCC(OC(=O)C(C)(C)C)CC3)c(F)cc3c(=O)c(C(=O)OCOC(=O)C(C)(C)C)cn1c23	> 150	> 16	> 16	
COC(=O)COC(=O)c1cn2c3c(c(N4CCC(O)CC4)c(F)cc3c1=O)CC[C@@H]2C	> 150	4 (≈ 9.25 µM)	8 (≈ 18.5 µM)	
CO[C@@H]1C(OC2CCN(c3c(F)cc4c(=O)c(C(=O)O)cn5c4c3CC[C@@H]5C)CC2)O[C@@H](CO)[C@@H](O)[C@@H]1O (single isomer, unassigned)	> 100	0.1 (≈ 0.186 µM)	0.1 (≈ 0.186 µM)	
C[C@H]1CCc2c(N3CCC(OC(=O)[C@@H](N)CCC/N=C(\N)N[N+](=O)[O-])CC3)c(F)cc3c(=O)c(C(=O)O)cn1c23.O=C(O)C(F)(F)F	> 75	0.06	0.25	
C[C@H]1CCc2c(N3CCC(O)CC3)c(F)cc3c(=O)c(C(=O)[O-])cn1c23.[K+]	> 100			MIC (Staphylococcus aureus [8]; [13]): 0.03 µg/mL
CC(=O)NC[C@H]1CN(c2ccc(N3CCOCC3)c(F)c2)C(=O)O1 [LINEZOLID]				ED50 (Mus musculus [9]): 2.4 mg/kg; ED50 (Mus musculus [10]): 3.1 mg/kg; ED50 (Mus musculus [11]): 1.14 mg/kg
CCOC(=O)COC(=O)c1cn2c3c(c(N4CCC(O)CC4)c(F)cc3c1=O)CC[C@@H]2C	> 150	2 (≈ 4.48 µM)	8 (≈ 17.9 µM)	
C[C@H]1CCc2c(N3CCC(OC(=O)C(C)(C)C)CC3)c(F)cc3c(=O)c(C(=O)O)cn1c23	> 100	0.25 (≈ 0.562 µM)	0.5 (≈ 1.12 µM)	
C[C@H]1CCc2c(N3CCC(O)CC3)c(F)cc3c(=O)c(C(=O)O)cn1c23.N=C(N)NCCC[C@H](N)C(=O)O (stereo in doubt; 20)				ED50 (Mus musculus [5]): >100 mg/kg; MIC (Staphylococcus aureus [8]): 0.03 µg/mL
CCn1cc(C(=O)O)c(=O)c2cc(F)c(N3CCNCC3)cc21 [NORFLOXACIN]				logD (physchem [2]): -1.46; logD (physchem [3]): -1; pKa (physchem [4]): 6.54
COC(=O)c1cn2c3c(c(N4CCC(O)CC4)c(F)cc3c1=O)CC[C@@H]2C	> 100	1 (≈ 2.67 µM)	8 (≈ 21.4 µM)	
C[C@H]1CCc2c(N3CCC(O)CC3)c(F)cc3c(=O)c(C(=O)OCCN4CCOCC4)cn1c23	> 100	0.1 (≈ 0.211 µM)	0.25 (≈ 0.528 µM)	
CCn1cc(C(=O)O)c(=O)c2cc(F)c(N3CCN(C)CC3)cc21 [PEFLOXACIN]				pKa (physchem [1]): 9.97; pKa (physchem [4]): 6.15
C[C@H]1CCc2c(N3CCC(OC(=O)[C@H](N)CCCN=C(N)N)CC3)c(F)cc3c(=O)c(C(=O)O)cn1c23	> 100	0.1 (≈ 0.194 µM)	1 (≈ 1.94 µM)	
C[C@H]1CCc2c(N3CCC(O)CC3)c(F)cc3c(=O)c(C(=O)OCCN4CCCCC4)cn1c23	> 150	0.25 (≈ 0.53 µM)	2 (≈ 4.24 µM)	
C[C@H]1CCc2c(N3CCC(OC(=O)[C@H](CCC/N=C(\N)N[N+](=O)[O-])NC(=O)[C@@H](N)CCC/N=C(\N)N[N+](=O)[O-])CC3)c(F)cc3c(=O)c(C(=O)O)cn1c23.O=C(O)C(F)(F)F	> 75	0.12	0.5	
C[C@H]1CCc2c(N3CCC(O)CC3)c(F)cc3c(=O)c(C(=O)OCCN4CCCC4)cn1c23	> 150	0.06 (≈ 0.131 µM)	1 (≈ 2.19 µM)	
